The results in this text go back to patent US20230158151A1 (NURIX THERAPEUTICS, INC., priority 2021, published 2023).

In this test the target is T1, ITK (Mus musculus, UniProt Q03526).
T1 construct: administered to mice orally; from tissue; host or cells: mouse splenocytes (spleen) after oral dosing
T1 sequence (Q03526 1-625): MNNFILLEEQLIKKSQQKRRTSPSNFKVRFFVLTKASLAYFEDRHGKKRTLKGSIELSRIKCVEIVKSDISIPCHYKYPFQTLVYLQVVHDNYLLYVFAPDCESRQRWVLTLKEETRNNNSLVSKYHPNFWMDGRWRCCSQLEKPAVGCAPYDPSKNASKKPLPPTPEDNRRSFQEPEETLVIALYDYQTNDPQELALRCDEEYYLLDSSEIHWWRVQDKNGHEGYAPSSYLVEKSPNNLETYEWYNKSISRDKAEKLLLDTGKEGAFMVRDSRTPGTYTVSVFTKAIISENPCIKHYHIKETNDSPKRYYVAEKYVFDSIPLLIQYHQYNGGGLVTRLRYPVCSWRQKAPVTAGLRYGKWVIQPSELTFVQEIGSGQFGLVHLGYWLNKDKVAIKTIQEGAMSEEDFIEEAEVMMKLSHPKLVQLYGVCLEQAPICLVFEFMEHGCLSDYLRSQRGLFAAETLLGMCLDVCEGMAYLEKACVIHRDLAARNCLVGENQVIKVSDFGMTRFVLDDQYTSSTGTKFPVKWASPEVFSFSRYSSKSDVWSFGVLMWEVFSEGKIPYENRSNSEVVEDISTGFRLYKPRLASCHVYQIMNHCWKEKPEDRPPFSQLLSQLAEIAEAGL
As to the kind of experiment: Western Assay for ITK Degradation in Mouse Splenocytes after oral administration. Type of test: in vivo. As to conditions: % ITK remaining in mouse splenocytes. The method, then: Compounds 30 and 31 were administered to mice orally. After 6 hours, splenocytes cells were harvested. ITK was evaluated by Western blotting. Media was removed and cell pellets were lysed in 100 μL lysis buffer (RIPA buffer (Fisher, PI89901), cOmplete Mini EDTA-free protease inhibitor (Sigma 11836170001), Protease Inhibitor Cocktail (Sigma, P2714), Phosphatase Inhibitor Cocktail 2 and 3 (Sigma, P5726 and P0044), Benzonase (Sigma, E1014)). Cells were lysed overnight at −20° C. Following thaw, cells were centrifuged for 10 min at 13000 rpm, then transferred to new tube. Protein levels were determined by BCA Assay performed according to manufacturer's protocol (EMD Millipore, cat. no. 71285-3). Samples were combined with (4×) LDS Sample Buffer and (10×) Reducing Agent and H2O to equally load 20 μg protein per lane of a 26-well NuPAGE 4-12% Bis-Tris protein gel (1.0 mm, Thermo cat. no. NP0326). Samples were separated by running gels at constant 150 V in NuPAGE MES SDS Running Buffer. Following electrophoresis, proteins were transferred to nitrocellulose membranes using an iBlot Gel Transfer Device and iBlot Gel Transfer Stacks (Thermo cat. no. IB21001 and IB301001) and transfer method P3 (20V for 7 min). Membranes were blocked for 1 hr in 5% milk solution (TBS (0.2% Tween-20)). Following blocking, membranes were incubated with primary antibody (1:1000 CST ITK (2F12) #2380) overnight at 4° C. with gentle shaking. Blots were washed 2× in TBS (0.2% Tween-20), 30 min per wash. Following washes, blots were incubated in secondary HRP-conjugated antibody (Promega anti-Mouse IgG (H+L) HRP cat. no. W4021), 1:5000 in 5% milk solution (TBS (0.2% Tween-20)), for 1 hr at room temperature with gentle shaking. Blots were washed 2× in TBS (0.2% Tween-20), 30 min per wash. Blots were incubated with 1:1 mix of ECL reagents 1 & 2 (Amersham ECL Western Blotting Detection Reagent, cat. no. RPN2106) for 2 min at room temperature. Bands were visualized using a Protein Simple imager. Blots were then re-probed with a combination of anti-actin antibody (Sigma Monoclonal Mouse Anti-β-Actin (clone AC-15), cat. no. A5441) and secondary HRP-conjugated antibody (Promega anti-Mouse IgG (H+L) HRP, cat. no. W4021) and similar steps were taken for incubation, wash, detection and visualization steps as above. The data was analyzed using Alpha View software. The densitometric reading for each sample band was normalized to that of the corresponding actin band per lane. Approximate % ITK remaining per sample was calculated as follows: […]
Once % ITK remaining has been calculated for each sample, groups are averaged together to show an means % ITK normalized to actin and relative to control.
Compounds 30 and 29 were administered to mice orally. After 6 hours or 24 hours, splenocytes cells were harvested. ITK was evaluated by Western blotting. Plasma concentrations were determined by LC/MS/MS. Plasma samples were protein precipitated by addition of 100 μl of acetonitrile containing 50 ng/ml of internal standard. The resulting mixture was vortexed and centrifuged at 4000 RPM for 5 minutes. An aliquot of the resultant supernatant (75 μl) was added to 75 μl of 0.1% formic acid in water to constitute the final sample for injection. Samples were injected on a Shimadzu Exion LC Binary Gradient AD Pump HLPC system connected to a Sciex QTRAP 6500+ mass spectrometer. Five μl of sample was injected onto a Waters Acquity UPLC BEH C18 column 130A (2.1×30 mm, […]) at 40° C. utilizing a flow rate of 700 μl/minute. Mobile Phase A was 0.1% formic acid in water and mobile phase B was 0.1% formic acid in acetonitrile. A linear gradient of 15-95% B over 1.0 minute was used. The mass spectrometer was operated in positive ion electrospray mode with multiple reaction monitoring for maximum sensitivity. Sciex Analyst software (version 1.6.3) was used for LC/MS/MS instrument control and acquisition. […]

Regarding `C[C@@]12Cc3[nH]nc(C(=O)Nc4cnn(CC5CN(C(=O)C6CCN(c7ccc(C8CCC(=O)NC8=O)cn7)CC6)C5)c4)c3C[C@@H]1C2(F)F` (stereo partly drawn) [Compound 22, (4aS,5aR)—N-(1-((1-(1-(5-(2,6-dioxopiperidin-3-yl)pyridin-2-yl)piperidine-4-carbonyl)azetidin-3-yl)methyl)-1H-pyrazol-4-yl)-5,5-difluoro-5a-methyl-1,4,4a,5,5a,6-hexahydrocyclopropa[f]indazole-3-carboxamide], for the setting “90 mpk PO, 6 h”, the “ITK (%) 90 mpk PO, 6 h” value was 113%. Turning to `CC1(C)CCc2c(-c3cc4ccc(C(=O)N5CCC(CN6CCC(c7ccc(C8CCC(=O)NC8=O)cc7)CC6)CC5)cc4[nH]3)n[nH]c2C1` (centres unmarked) [Compound 39, 3-(4-(1-((1-(2-(6,6-dimethyl-4,5,6,7-tetrahydro-1H-indazol-3-yl)-1H-indole-6-carbonyl)piperidin-4-yl)methyl)piperidin-4-yl)phenyl)piperidine-2,6-dione], where the note is “60 mpk PO, 24 h”, the “ITK (%) 60 mpk PO, 24 h” value was 93%.
